Assay results taken from ChEMBL document CHEMBL5727282, “Dihydropyrrolopyridine inhibitors of ROR-gamma” (2019).

Biological target: T1, Nuclear receptor ROR-gamma (Homo sapiens, UniProt P51449)
T1 sequence (P51449 whole entry): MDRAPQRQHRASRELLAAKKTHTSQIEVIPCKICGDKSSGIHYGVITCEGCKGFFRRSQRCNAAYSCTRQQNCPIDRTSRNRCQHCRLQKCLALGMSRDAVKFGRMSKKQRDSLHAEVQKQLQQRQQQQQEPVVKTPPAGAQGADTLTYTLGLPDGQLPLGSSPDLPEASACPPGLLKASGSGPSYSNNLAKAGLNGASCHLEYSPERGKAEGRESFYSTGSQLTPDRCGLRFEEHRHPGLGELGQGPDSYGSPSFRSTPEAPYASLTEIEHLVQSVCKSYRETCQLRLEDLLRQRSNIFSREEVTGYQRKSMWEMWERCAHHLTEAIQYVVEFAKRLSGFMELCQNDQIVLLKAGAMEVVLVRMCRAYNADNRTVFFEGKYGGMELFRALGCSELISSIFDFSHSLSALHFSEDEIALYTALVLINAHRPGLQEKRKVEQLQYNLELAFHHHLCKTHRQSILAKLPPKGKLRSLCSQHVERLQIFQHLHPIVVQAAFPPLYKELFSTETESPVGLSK
Assay: ROR gamma t 5xRORE Assay in Jurkat Cells (Assay 2): Compounds of the present invention were tested for ROR gamma inverse agonist activity in a cell-based, transcriptional activity assay. […] (Promega, Cat. # N1021) using KpnI and HindIII restriction sites. […] Luciferase activity in the conditioned supernatants was determined with NanoGlo assay reagents (Promega, Cat.# N1130).

Structure (SMILES): CCS(=O)(=O)c1ccc(C2(NC(=O)c3cnc4c(c3)CN(Cc3ccc(C(F)(F)F)cc3)[C@H]4C(C)C)CC2)nc1
- IC50: < 100 nM
